Assay results published in US20230279020A9, “CARM1 INHIBITORS AND USES THEREOF” (Epizyme, Inc., priority 2013, published 2023).

Target: Human CARM1 (PRMT4) (Homo sapiens (Human), UniProt Q86X55)
Test: CARM1 enzyme assay on peptide substrate (3H-SAM Flashplate)
Details: Biochemical potencies, classification codes; read-out: Biochem IC50

Human CARM1 (PRMT4), sequence (Q86X55 other isoform, or with tags, fused parts or gaps isoform Q86X55-1): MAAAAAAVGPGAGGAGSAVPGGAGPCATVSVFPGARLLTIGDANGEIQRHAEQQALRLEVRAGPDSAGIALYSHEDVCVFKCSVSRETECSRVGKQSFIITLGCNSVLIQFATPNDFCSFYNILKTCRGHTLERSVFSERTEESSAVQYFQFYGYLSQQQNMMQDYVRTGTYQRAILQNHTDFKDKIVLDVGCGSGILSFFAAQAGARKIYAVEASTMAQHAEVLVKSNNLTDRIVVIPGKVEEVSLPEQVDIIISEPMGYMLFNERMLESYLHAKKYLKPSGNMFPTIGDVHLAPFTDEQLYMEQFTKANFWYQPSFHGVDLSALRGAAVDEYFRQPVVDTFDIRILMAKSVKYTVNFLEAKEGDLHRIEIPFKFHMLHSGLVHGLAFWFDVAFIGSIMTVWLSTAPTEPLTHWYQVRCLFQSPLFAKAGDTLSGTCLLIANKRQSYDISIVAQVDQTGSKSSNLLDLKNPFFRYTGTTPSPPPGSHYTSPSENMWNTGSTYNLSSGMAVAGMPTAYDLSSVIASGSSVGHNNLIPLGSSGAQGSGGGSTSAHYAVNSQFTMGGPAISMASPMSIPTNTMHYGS

IC50 | Structure (SMILES)
< 100 nM | CNCC(O)COc1cccc(-c2nc(NC3C4COCC43)c(C)c(-c3c(C)noc3C)n2)c1 (stereo not drawn) [Example 212-1a]
< 100 nM | CNC[C@@H](O)COc1ccc(Cl)c(-c2nc(N[C@H]3CC[C@@H](OC)C3)c(C)c(-c3c(C)noc3C)n2)c1 [Example 212-3]
< 100 nM | CNC[C@@H](O)COc1ccc(Cl)c(-c2nc(-c3c(C)noc3C)c(C)c(N(C)[C@H]3CC[C@@H](OC)C3)n2)c1 [Example 213-3]
< 100 nM | CNC[C@@H](O)COc1ccc(Cl)c(-c2nc(-c3c(C)noc3C)c(Cl)c(N3Cc4ccncc4C3)n2)c1 [Example 214-3]
< 100 nM | CNCC(O)COc1cccc(-c2nc(Nc3nncs3)c(C)c(-c3c(C)noc3C)n2)c1 (stereo not drawn) [Example 215-1a]
< 100 nM | CNC[C@@H](O)COc1ccc(Cl)c(-c2nc(NC[C@H]3CCCO3)c(Cl)c(-c3c(C)noc3C)n2)c1 [Example 215-3]
< 100 nM | CNCC(O)COc1cccc(-c2nc(NC3CCCN(C(=O)N(C)C)C3)c(C)c(-c3c(C)noc3C)n2)c1 (stereo not drawn) [Example 216-1a]
< 100 nM | CNC[C@@H](O)COc1ccc(Cl)c(-c2nc(N[C@H]3C[C@@H](OC)C3)c(Cl)c(-c3c(C)noc3C)n2)c1 [Example 216-3]
< 100 nM | CNCC(O)COc1cccc(-c2nc(Nc3nnc(C4CC4)s3)c(C)c(-c3c(C)noc3C)n2)c1 (stereo not drawn) [Example 217-1a]
< 100 nM | CNC[C@@H](O)COc1ccc(Cl)c(-c2nc(N[C@H]3C[C@H](OC)C3)c(Cl)c(-c3c(C)noc3C)n2)c1 [Example 217-3]
< 100 nM | CNCC(O)COc1cccc(-c2nc(N[C@H]3CCC[C@H]3O)c(C)c(-c3c(C)noc3C)n2)c1 (stereo partly drawn) [Example 218-1a]
< 100 nM | CNCC(O)COc1ccc(Cl)c(-c2nc(NC3CC4(CC4)C3)c(C)c(-c3c(C)noc3C)n2)c1 (stereo not drawn) [Example 218-3]
< 100 nM | CNCC(O)COc1cccc(-c2nc(NC3CCC[C@H]3O)c(C)c(-c3c(C)noc3C)n2)c1 (stereo partly drawn) [Example 219-1a]
< 100 nM | CNC[C@@H](O)COc1ccc(Cl)c(-c2nc(NC3CC(COC)C3)c(C)c(-c3c(C)noc3C)n2)c1 (stereo partly drawn) [Example 219-3]
< 100 nM | CNCC(O)COc1cccc(-c2nc(N[C@@H]3CCOC[C@@H]3OC)c(C)c(-c3c(C)noc3C)n2)c1 (stereo partly drawn) [Example 220-1a]
< 100 nM | CNC[C@@H](O)COc1ccc(Cl)c(-c2nc(-c3c(C)noc3C)c(C)c(N(C)C3CC(COC)C3)n2)c1 (stereo partly drawn) [Example 220-3]
< 100 nM | CNCC(O)COc1cccc(-c2nc(N[C@H]3C[C@H](C(=O)OC)C3)c(C)c(-c3c(C)noc3C)n2)c1 (stereo partly drawn) [Example 221-1a]
< 100 nM | CCOC(=O)N1CCC[C@H]1CCOc1nc(-c2cc(OC[C@H](O)CNC)ccc2Cl)nc(-c2c(C)noc2C)c1C [Example 221-3]
< 100 nM | CCO[C@H]1CCC[C@@H]1Nc1nc(-c2cc(OC[C@H](O)CNC)ccc2Cl)nc(-c2c(C)noc2C)c1C [Example 222-3]
< 100 nM | CNC[C@@H](O)COc1ccc(F)c(-c2nc(-c3c(C)noc3C)c(C)c(N3Cc4cnn(C)c4C3)n2)c1 [Example 223-3]
< 100 nM | CNCC(O)COc1cccc(-c2nc(N[C@@H]3CCNC[C@@H]3F)c(C)c(-c3c(C)noc3C)n2)c1 (stereo partly drawn) [Example 224-1a]
< 100 nM | CNC[C@@H](O)COc1ccc(Cl)c(-c2nc(-c3c(C)noc3C)c(C)c(N3Cc4[nH]nc(C)c4C3)n2)c1 [Example 224-3]

IC50 | Structure (SMILES)
< 100 nM | CNCC(O)COc1cccc(-c2nc(N[C@@H]3CCN(C(=O)OC)C[C@@H]3F)c(C)c(-c3c(C)noc3C)n2)c1 (stereo partly drawn) [Example 225-1a]
< 100 nM | CNC[C@@H](O)COc1ccc(Cl)c(-c2nc(-c3c(C)noc3C)c(Cl)c(N3Cc4nccnc4C3)n2)c1 [Example 225-3]
< 100 nM | CCOC(=O)N1CC[C@@H](Nc2nc(-c3cccc(OCC(O)CNC)c3)nc(-c3c(C)noc3C)c2C)[C@@H](F)C1 (stereo partly drawn) [Example 226-1a]
< 100 nM | CNC[C@@H](O)COc1ccc(F)c(-c2nc(-c3c(C)noc3C)c(C)c(N3Cc4nccnc4C3)n2)c1 [Example 226-3]
< 100 nM | CNCC(O)COc1cccc(-c2nc(N[C@@H]3CCN(C(=O)OC(C)(C)C)C[C@@H]3F)c(C)c(-c3c(C)noc3C)n2)c1 (stereo partly drawn) [Example 227-1a]
< 100 nM | CNC[C@@H](O)COc1ccc(F)c(-c2nc(-c3c(C)noc3C)c(C)c(N3CC4(CCOCC4)C3)n2)c1 [Example 227-3]
< 100 nM | CNCC(O)COc1cccc(-c2nc(N[C@@H]3CCN(C(=O)OC)C[C@H]3F)c(C)c(-c3c(C)noc3C)n2)c1 (stereo partly drawn) [Example 228-1a]
< 100 nM | CNC[C@@H](O)COc1ccc(Cl)c(-c2nc(NC[C@@H]3CCOC3)c(C)c(-c3c(C)noc3C)n2)c1 [Example 228-3]
< 100 nM | CCOC(=O)N1CC[C@@H](Nc2nc(-c3cccc(OCC(O)CNC)c3)nc(-c3c(C)noc3C)c2C)[C@H](F)C1 (stereo partly drawn) [Example 229-1a]
< 100 nM | CNC[C@@H](O)COc1ccc(Cl)c(-c2nc(-c3c(C)noc3C)c(Cl)c(N3CC4(CCOCC4)C3)n2)c1 [Example 229-3]
< 100 nM | CCS(=O)(=O)N1CCOC[C@@H]1CNc1nc(-c2cccc(OCC(O)CNC)c2)nc(-c2c(C)noc2C)c1C (stereo partly drawn) [Example 230-1a]
< 100 nM | CNC[C@@H](O)COc1ccc(Cl)c(-c2nc(NC3CC(C)C3)c(C)c(-c3c(C)noc3C)n2)c1 (stereo partly drawn) [Example 230-3]
< 100 nM | CNCC(O)COc1cccc(-c2nc(N[C@H]3C[C@H](C(C)(C)O)C3)c(C)c(-c3c(C)noc3C)n2)c1 (stereo partly drawn) [Example 231-1a]
< 100 nM | CNC[C@@H](O)COc1ccc(Cl)c(-c2nc(-c3c(C)noc3C)c(C)c(N3Cc4cn[nH]c4C3)n2)c1 [Example 231-3]
< 100 nM | CNCC(O)COc1cccc(-c2nc(N[C@H]3C[C@@H](C(C)(C)O)C3)c(C)c(-c3c(C)noc3C)n2)c1 (stereo partly drawn) [Example 232-1a]
< 100 nM | CNC[C@@H](O)COc1ccc(Cl)c(-c2nc(-c3c(C)noc3C)c(C)c(N3Cc4cc(OC)cnc4C3)n2)c1 [Example 232-3]
< 100 nM | CNCC(O)COc1cccc(-c2nc(Nc3cc(C)on3)c(C)c(-c3c(C)noc3C)n2)c1 (stereo not drawn) [Example 233-1a]
< 100 nM | CNC[C@@H](O)COc1ccc(Cl)c(-c2nc(NC[C@H]3CCOC3)c(C)c(-c3c(C)noc3C)n2)c1 [Example 233-3]
< 100 nM | CNCC(O)COc1cccc(-c2nc(N[C@H]3CC[C@H](OC)C3)c(C)c(-c3c(C)noc3C)n2)c1 (stereo partly drawn) [Example 234-1a]
< 100 nM | CNC[C@@H](O)COc1ccc(Cl)c(-c2nc(-c3c(C)noc3C)c(C)c(N3CCC4(CC4)C3)n2)c1 [Example 234-3]
< 100 nM | CNCC(O)COc1cccc(-c2nc(-c3c(C)noc3C)c(C)c(N3CCN(Cc4ccccc4)C(C(F)F)C3)n2)c1 (stereo not drawn) [Example 235-1a]
< 100 nM | CNC[C@@H](O)COc1ccc(Cl)c(-c2nc(-c3c(C)noc3C)c(C)c(N3CC4CC4C3)n2)c1 (stereo partly drawn) [Example 235-3]

IC50 | Structure (SMILES)
< 100 nM | CNCC(O)COc1cccc(-c2nc(NC3CCOCC3)c(C)c(-c3c(C)noc3C3CC3)n2)c1 (stereo not drawn) [Example 236-1a]
< 100 nM | CNC[C@@H](O)COc1ccc(Cl)c(-c2nc(-c3c(C)noc3C)c(C)c(N3Cc4c(C)nn(C)c4C3)n2)c1 [Example 236-3]
< 100 nM | CNCC(O)COc1cccc(-c2nc(NC3CN(CC(F)F)C3)c(C)c(-c3c(C)noc3C)n2)c1 (stereo not drawn) [Example 237-1a]
< 100 nM | CCOC(=O)N1CC(Nc2nc(-c3cccc(OCC(O)CNC)c3)nc(-c3c(C)noc3C)c2C)C1 (stereo not drawn) [Example 238-1a]
< 100 nM | CNC[C@@H](O)COc1ccc(Cl)c(-c2nc(-c3c(C)noc3C)c(C)c(N3CCC3)n2)c1 [Example 238-3]
< 100 nM | CNCC(O)COc1cccc(-c2nc(NC3CCOC(C)C3)c(C)c(-c3c(C)noc3C)n2)c1 (stereo not drawn) [Example 239-1a]
< 100 nM | CNC[C@@H](O)COc1ccc(Cl)c(-c2nc(-c3cnn(C)c3)c(C)c(-c3c(C)noc3C)n2)c1 [Example 239-3]
< 100 nM | CNCC(O)COc1cccc(-c2nc(NC3CCN(C4COC4)C3)c(C)c(-c3c(C)noc3C)n2)c1 (stereo not drawn) [Example 240-1a]
< 100 nM | CCO[C@@H]1CCC[C@H]1Nc1nc(-c2cc(OC[C@H](O)CNC)ccc2Cl)nc(-c2c(C)noc2C)c1C [Example 240-3]
< 100 nM | CNCC(O)COc1cccc(-c2nc(NC3CCCC3)c(C)c(-c3c(C)noc3C)n2)c1 (stereo not drawn) [Example 241-1a]
< 100 nM | CCO[C@@H]1CCC[C@H]1N(CC)c1nc(-c2cc(OC[C@H](O)CNC)ccc2Cl)nc(-c2c(C)noc2C)c1C [Example 241-3]
< 100 nM | CCO[C@H]1CCC[C@H]1Nc1nc(-c2cc(OC[C@H](O)CNC)ccc2Cl)nc(-c2c(C)noc2C)c1C [Example 242-3]
< 100 nM | CNCC(O)COc1cccc(-c2nc(NC3CCN(C(=O)C4CC4)C3)c(C)c(-c3c(C)noc3C)n2)c1 (stereo not drawn) [Example 243-1a]
< 100 nM | CNC[C@@H](O)COc1ccc(Cl)c(-c2nc(-c3c(C)noc3C)c(Cl)c(N3Cc4nc(C)sc4C3)n2)c1 [Example 243-3]
< 100 nM | CNCC(O)COc1cccc(-c2nc(NC3CCN(C(=O)N(C)C)CC3)c(C)c(-c3c(C)noc3C)n2)c1 (stereo not drawn) [Example 244-1a]
< 100 nM | CNC[C@@H](O)COc1ccc(F)c(-c2nc(-c3c(C)noc3C)c(C)c(N3Cc4cc(OC)cnc4C3)n2)c1 [Example 244-3]
< 100 nM | CNCC(O)COc1cccc(-c2nc(NC3CCN(C(=O)C4CC4)CC3)c(C)c(-c3c(C)noc3C)n2)c1 (stereo not drawn) [Example 245-1a]
< 100 nM | CNC[C@@H](O)COc1ccc(Cl)c(-c2nc(-c3c(C)noc3C)c(C)c(N3Cc4cnc(C)nc4C3)n2)c1 [Example 245-3]
< 100 nM | CNCC(O)COc1cccc(-c2nc(NC3CCCN(C4COC4)C3)c(C)c(-c3c(C)noc3C)n2)c1 (stereo not drawn) [Example 246-1a]
< 100 nM | CNC[C@@H](O)COc1ccc(Cl)c(-c2nc(-c3c(C)noc3C)c(C)c(N3CC4(CCC4)C3)n2)c1 [Example 246-3]
< 100 nM | CNCC(O)COc1cccc(-c2nc(NC3CCCN(C(=O)C4CC4)C3)c(C)c(-c3c(C)noc3C)n2)c1 (stereo not drawn) [Example 247-1a]

Structure (SMILES) | IC50
CNCC(O)COc1cccc(-c2nc(NC3C[C@H]4CC[C@@H](C3)N4C(=O)OC)c(C)c(-c3c(C)noc3C)n2)c1 (stereo partly drawn) [Example 242-1a] | < 100 nM
